Laboratory results taken from US20240300928A1, “GLP-1 RECEPTOR AGONIST, PHARMACEUTICAL COMPOSITION COMPRISING SAME, AND METHOD FOR PREPARING SAME” (LG CHEM, LTD., priority 2021, published 2024).

Target: T1, hGLP-1R (Homo sapiens, UniProt P43220)
T1 construct: expressed in transfected cells; host or cells: CHO-K1 (hGLP-1R and CRE-luciferase reporter)
Test: GLP-1R agonist activity measurement (cell-based luciferase assay)
Details: CHO-K1/hGLP-1R/CRE-luciferase cell line, 4 h treatment, Bright-Glo luminescence
Protocol: Experimental Example 1: GLP-1R Agonist Activity Measurement (Cell-Based Luciferase Assay)
The CHO-K1/hGLP-1R/CRE-luciferase cell line was seeded at 15000 cells in a 96-well plate. As a medium, Ham's F-12 Nutrient medium was used. After culturing for 18 hours in a 5% CO2 incubator maintained at 37° C., the drug was treated. Each drug plated at 9 concentrations was dissolved in DMEM/F-12+1% FBS medium and treated with 100 ul of each cell line. After culturing for 4 h, 30 ul of assay reagent was added to each well using the Bright-Glo™ luciferase assay system kit. After the plate was stored at room temperature for 15 min, luminescence was measured with a SpectraMax M5 instrument.

T1 sequence (P43220 24-463): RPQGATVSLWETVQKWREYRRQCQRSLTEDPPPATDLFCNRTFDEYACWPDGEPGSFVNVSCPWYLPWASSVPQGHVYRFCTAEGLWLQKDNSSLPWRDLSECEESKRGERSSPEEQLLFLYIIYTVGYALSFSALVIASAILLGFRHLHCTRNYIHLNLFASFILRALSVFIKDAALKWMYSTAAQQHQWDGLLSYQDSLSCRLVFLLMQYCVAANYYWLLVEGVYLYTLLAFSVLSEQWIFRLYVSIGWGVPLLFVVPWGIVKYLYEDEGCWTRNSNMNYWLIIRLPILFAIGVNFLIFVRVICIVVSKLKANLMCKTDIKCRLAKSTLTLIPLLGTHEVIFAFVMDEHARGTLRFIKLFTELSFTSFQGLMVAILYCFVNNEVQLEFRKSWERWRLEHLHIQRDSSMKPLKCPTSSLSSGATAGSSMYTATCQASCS

SMILES	EC50 [nM]
CCn1cncc1Cn1c(Cc2ccc(-c3cccc4c3OC(C)(c3ccc(Cl)cc3F)O4)c(F)c2)nc2ccc(C(=O)O)cc21 (stereo not shown) [Example 11, 2-(4-(2-(4-chloro-2-fluorophenyl)-2-methylbenzo[d][1,3]dioxol-4-yl)-3-fluorobenzyl)-1-((1-ethyl-1H-imidazol-5-yl)methyl)-1H-benzo[d]imidazol-6-carboxylic acid]	0.0256
CC1(c2ccc(Cl)cc2F)Oc2cccc(-c3ccc(Cc4nc5ccc(C(=O)O)cc5n4Cc4cnco4)cc3F)c2O1 (stereo not shown) [Example 5, 2-(4-(2-(4-chloro-2-fluorophenyl)-2-methylbenzo[d][1,3]dioxol-4-yl)-3-fluorobenzyl)-1-(oxazol-5-ylmethyl)-1H-benzo[d]imidazol-6-carboxylic acid]	0.16
CC1(c2ccc(Cl)cc2F)Oc2cccc(-c3ccc(Cc4nc5ccc(C(=O)O)cc5n4Cc4cnco4)cc3)c2O1 (stereo not shown) [Example 4, 2-(4-(2-(4-chloro-2-fluorophenyl)-2-methylbenzo[d][1,3]dioxol-4-yl)benzyl)-1-(oxazol-5-ylmethyl)-1H-benzo[d]imidazol-6-carboxylic acid]	0.278
CCCn1cnnc1Cn1c(Cc2ccc(-c3cccnc3OCc3ccc(Cl)cc3F)cc2)nc2ccc(C(=O)O)cc21 [Example 7, 2-(4-(2-((4-chloro-2-fluorobenzyl)oxy)pyridin-3-yl)benzyl)-1-((4-propyl-4H-1,2,4-triazol-3-yl)methyl)-1H-benzo[d]imidazol-6-carboxylic acid]	> 80
CCn1cncc1Cn1c(Cc2ccc(-c3cccc4c3OC(C)(c3ccc(Cl)cc3F)O4)cc2)nc2ccc(C(=O)O)cc21 (stereo not shown) [Example 10, 2-(4-(2-(4-chloro-2-fluorophenyl)-2-methylbenzo[d][1,3]dioxol-4-yl)benzyl)-1-((1-ethyl-1H-imidazol-5-yl)methyl)-1H-benzo[d]imidazol-6-carboxylic acid]	0.0216
CCCn1cnnc1Cn1c(Cc2ccc(-c3cccc4c3OC(C)(c3ccc(Cl)cc3F)O4)cc2)nc2ccc(C(=O)O)cc21 (stereo not shown) [Example 8, 2-(4-(2-(4-chloro-2-fluorophenyl)-2-methylbenzo[d][1,3]dioxol-4-yl)benzyl)-1-((4-propyl-4H-1,2,4-triazol-3-yl)methyl)-1H-benzo[d]imidazol-6-carboxylic acid]	0.914
CCCn1cnnc1Cn1c(Cc2ccc(-c3cccc4c3OC(C)(c3ccc(Cl)cc3F)O4)c(F)c2)nc2ccc(C(=O)O)cc21 (stereo not shown) [Example 9, 2-(4-(2-(4-chloro-2-fluorophenyl)-2-methylbenzo[d][1,3]dioxol-4-yl)-3-fluorobenzyl)-1-((4-propyl-4H-1,2,4-triazol-3-yl)methyl)-1H-benzo[d]imidazol-6-carboxylic acid]	0.772
CC1(c2ccc(Cl)cc2F)Oc2cccc(-c3ccc(Cc4nc5ccc(C(=O)O)cc5n4C[C@@H]4CCO4)cc3)c2O1 (stereo partly drawn) [Example 2, 2-(4-(2-(4-chloro-2-fluorophenyl)-2-methylbenzo[d][1,3]dioxol-4-yl)benzyl)-1-(((S)-oxetan-2-yl)methyl)-1H-benzo[d]imidazol-6-carboxylic acid]	0.108
CC1(c2ccc(Cl)cc2F)Oc2cccc(-c3ccc(Cc4nc5ccc(C(=O)O)cc5n4C[C@@H]4CCO4)cc3F)c2O1 (stereo partly drawn) [Example 3, 2-(4-(2-(4-chloro-2-fluorophenyl)-2-methylbenzo[d][1,3]dioxol-4-yl)-3-fluorobenzyl)-1-(((S)-oxetan-2-yl)methyl)-1H-benzo[d]imidazol-6-carboxylic acid]	0.041
CC1(c2ccc(Cl)cc2F)Oc2cccc(-c3ccc(Cc4nc5ccc(C(=O)O)cc5n4C[C@@H]4CCCO4)cc3)c2O1 (stereo partly drawn) [Example 12, 2-(4-(2-(4-chloro-2-fluorophenyl)-2-methylbenzo[d][1,3]dioxol-4-yl)benzyl)-1-(((S)-tetrahydrofuran-2-yl)methyl)-1H-benzo[d]imidazol-6-carboxylic acid]	0.223
O=C(O)c1ccc2nc(Cc3ccc(-c4cccc(OCC56CCC(CC5)CC6)n4)cc3)n(C[C@@H]3CCO3)c2c1 [Example 13, (S)-2-(4-(6-(bicyclo[2.2.2]octan-1-ylmethoxy)pyridin-2-yl)benzyl)-1-(oxetan-2-ylmethyl)-1H-benzo[d]imidazol-6-carboxylic acid]	> 80
O=C(O)c1ccc2nc(Cc3ccc(-c4cccnc4OCc4ccc(Cl)cc4F)cc3)n(C[C@@H]3CCO3)c2c1 [Example 1, (S)-2-(4-(2-((4-chloro-2-fluorobenzyl)oxy)pyridin-3-yl)benzyl)-1-(oxetan-2-ylmethyl)-1H-benzo[d]imidazol-6-carboxylic acid]	0.316
O=C(O)c1ccc2nc(Cc3ccc(-c4cccnc4OCc4ccc(Cl)cc4F)cc3)n(Cc3cnco3)c2c1 [Example 6, 2-(4-(2-((4-chloro-2-fluorobenzyl)oxy)pyridin-3-yl)benzyl)-1-(oxazol-5-ylmethyl)-1H-benzo[d]imidazol-6-carboxylic acid]	3.5
